Measurements reported in patent publication US20180243260A1, “METHODS OF TREATING COGNITIVE AND BEHAVIORAL IMPAIRMENT IN DOWN SYNDROME AND ALZHEIMERS DISEASE PATIENTS” (AVANTI BIOSCIENCES INC., priority 2016, published 2018).

target: DYRK1A (Homo sapiens, UniProt Q13627); assay: not given; settings: non-ATP competitive DYRK1A inhibitor; Bain, J., et al., Biochem J 408 (2007); cited from earlier work

| Structure (SMILES) | IC50 [µM] |
| --- | --- |
| O=C(O[C@@H]1Cc2c(O)cc(O)cc2O[C@@H]1c1cc(O)c(O)c(O)c1)c1cc(O)c(O)c(O)c1 [EGCG, Epigallocatechin gallate] | 0.33 |

target: T1, DYRK1A (Rattus norvegicus, UniProt Q63470); assay: DYRK1A ELISA non-radioactive kinase assay; assay type: biochemical; settings: HT-PRD substrate, 100 μM ATP, 30 min at 30° C.
T1 construct: 6x histidine tag (HT)
Description: Decant HT-PRD solution, wash the wells twice with Tris dilution buffer. Block each well with 150 μl BSA/PBST blocking buffer PBST (2% BSA in PBS with 0.25% Tween 20) for at least 1 hr at room temperature.
Decant the blocking solution and wash the wells 3-4 times with Tris dilution buffer. Perform DYRK1A phosphorylation in the well with 100 μl reaction buffer (25 mM HEPES, pH 7.4, 100 mM NaCl, 5 mM MgCl2, and 100 μM ATP) containing DYRK1A (eg. 5-10 ng purified HT-DYRK1A) and inhibitor, if necessary, for 30 min at 30° C. […] Use 80 μl of this mixture in the reaction will give final ATP concentration of 100 μM. ATP concentrations may be adjusted if necessary. • 2. Add 10 μl inhibitor. If the inhibitor is dissolved in DMSO, shake the plate gently for 1 min before adding kinase. • 3. Dilute DYRK1A in Tris dilution buffer to a concentration of 0.5 ng/l (prepare fresh every time). • 4. Initiate phosphorylation by adding 10 l DYRK1A to each well.
Decant the phosphorylation solution and wash the wells three times with PBST. Add 100 μl diluted antibody 3D3 (eg. 2˜3K dilution of 1.5 mg/ml stock in BSA blocking buffer) and incubate for 1 hr at room temperature.
Decant the primary antibody solution and wash the wells three times with PBST. Add 100 μl diluted AP-conjugated anti-mouse IgG (5K dilution of anti-mouse IgG-AP in BSA blocking buffer) and incubate for 1 hr at room temperature.
Color Development and Detection.
Decant the secondary antibody and wash the wells extensively (3-4 times) with AP buffer (10 mM Tris-HCl, pH 9.5, 10 mM NaCl, and 5 mM MgCl2). Add 100 μl p-nitrophenyl phosphate solution (1 mg/ml in AP buffer or 1 PNPP tablet per 5 ml 1× diethanolamine substrate buffer) and incubate the plate at 30° C. Yellow color should start appearing in a few minutes. OD at 405 nm usually can be read between 10-30 min.

| Structure (SMILES) | IC50 [µM] |
| --- | --- |
| Oc1cc(O)c2c(c1)O[C@H](c1cc(O)c(O)c(O)c1)[C@H](O)C2 [(2R,3R)-2-(3,4,5-trihydroxyphenyl)chroman-3,5,7-triol] | > 100 |
| O=C(O[C@@H]1Cc2c(O)cc(O)cc2O[C@@H]1c1ccc(O)c(O)c1)c1cc(O)c(O)c(O)c1 [(2R,3R)-2-(3,4-dihydroxyphenyl)-5,7-dihydroxychroman-3-yl 3,4,5-trihydroxybenzoate] | 0.52 |
| COc1c(O)cc([C@H]2Oc3cc(O)cc(O)c3C[C@H]2OC(=O)c2cc(O)c(O)c(O)c2)cc1O [(2R,3R)-2-(3,5-dihydroxy-4-methoxyphenyl)-5,7-dihydroxychroman-3-yl 3,4,5-trihydroxybenzoate] | 5.8 |
| Oc1cc(O)c2c(c1)O[C@@H](c1cc(O)c(O)c(O)c1)[C@H](O)C2 [(2S,3R)-2-(3,4,5-trihydroxyphenyl)chroman-3,5,7-triol] | > 100 |

Results, then the compound that gave them:

| IC50 [µM] | Structure (SMILES) |
| --- | --- |
| > 100 | Oc1cc(O)c2c(c1)O[C@H](c1ccc(O)c(O)c1)[C@H](O)C2 [(2R,3R)-2-(3,4-dihydroxyphenyl)chroman-3,5,7-triol] |
| 25.1 | COc1c(O)cc(C(=O)O[C@@H]2Cc3c(O)cc(O)cc3O[C@@H]2c2cc(O)c(O)c(O)c2)cc1O [(2R,3R)-5,7-dihydroxy-2-(3,4,5-trihydroxyphenyl)chroman-3-yl 3,5-dihydroxy-4-methoxybenzoate] |
| 0.18 | O=C(O[C@@H]1Cc2c(O)cc(O)cc2O[C@H]1c1ccc(O)c(O)c1)c1cc(O)c(O)c(O)c1 [(2S,3R)-2-(3,4-dihydroxyphenyl)-5,7-dihydroxychroman-3-yl 3,4,5-trihydroxybenzoate] |
| > 100 | Oc1cc(O)c2c(c1)O[C@@H](c1ccc(O)c(O)c1)[C@H](O)C2 [(2S,3R)-2-(3,4-dihydroxyphenyl)chroman-3,5,7-triol] |

tested on: DS patients; assay: not given; settings: randomized, double-blinded placebo-controlled study, De la Torre et al. 2014; cited from earlier work

| Structure (SMILES) | memory recognition, working memory and quality of life |
| --- | --- |
| O=C(O[C@@H]1Cc2c(O)cc(O)cc2O[C@@H]1c1cc(O)c(O)c(O)c1)c1cc(O)c(O)c(O)c1 [EGCG, Epigallocatechin gallate] | improved memory recognition, working memory and quality of life |
